Data published in PMC11237654, “Optimization of quenched fluorescent peptide substrates of SARS-CoV-2 3CL^pro main protease (Mpro) from proteomic identification of P6—P6' active site specificity” (Journal of Virology, 2024).
“And” between values parts separate entries of the source, which are not always exact repeats. Equal entries are not always repeated. Where two headings read alike, the source gives them in different places.

Tests used:
SARS-CoV-2 3CL^pro [1] = target: T1, SARS-CoV-2 3CL^pro (Severe acute respiratory syndrome coronavirus 2, UniProt P0DTD1, Q3569A)
SARS-CoV-2 3CL^pro [2] = target: T1, SARS-CoV-2 3CL^pro; remark: listed apart in the source
SARS-CoV-2 3CL^pro [3] = target: T1, SARS-CoV-2 3CL^pro; details: pH 6.9

Substance | ^app(kcat/KM) (SARS-CoV-2 3CL^pro [1]; pH 6.9) | also measured
AAVALQ↓XAHHYAYR [listing 1 of 7 here] | No cleavage | –
AAVALQ↓XAHHYAYR [listing 2 of 7 here] | No cleavage | –
AAVALQ↓XAHHYAYR [W] | No cleavage | –
AAVALQ↓XAHHYAYR [S] | 1,519.1 ± 6.2 M^−1s^−1 | ^app(kcat/KM) (SARS-CoV-2 3CL^pro [1]): 1,528 M^−1s^−1
Mca-RVALQ↓XAHYK(Dnp)RR [QFS1-G1'] | – | kcat/KM (SARS-CoV-2 3CL^pro [2]): 4,515.7 M^−1·s^−1 and 4,515.7 ± 248
VALQ↓GAHRVALQ↓XAHYR [Leu] | – | cleavage at second (test) site with P1' X (SARS-CoV-2 3CL^pro [1]): minimal cleavage
AAVALQ↓XAHHYAYR [N] | 71.8 ± 3.2 M⁻¹ s⁻¹ | –
AAVALQ↓XAHHYAYR [E] | No cleavage | –
AAVALQ↓XAHHYAYR [I] | No cleavage | –
AAVALQ↓XAHHYAYR [listing 3 of 7 here] | No cleavage | –
AAVALQ↓XAHHYAYR [K] | No cleavage | –
AAVALQ↓XAHHYAYR [P] | No cleavage | –
AAVALQ↓XAHHYAYR [T] | No cleavage | –
AAVALQ↓XAHHYAYR [listing 4 of 7 here] | No cleavage | –
AAVALQ↓XAHHYAYR [listing 5 of 7 here] | 1,522.0 ± 7.6 M^−1s^−1 | –
AAVALQ↓XAHHYAYR [M] | 65.8 ± 1.4 M⁻¹ s⁻¹ | –
Mca-RVALQ↓XAHYK(Dnp)RR [QFS1-A1'] | – | kcat/KM (SARS-CoV-2 3CL^pro [2]): 13,131.0 M^−1·s^−1 and 13,131.0 ± 207
AAVALX↓SAHHYAYR [P1-His] | – | ^app(kcat/KM) (SARS-CoV-2 3CL^pro [1]): 222 M⁻¹ s⁻¹
Mca-RVALQ↓XAHYK(Dnp)RR [QFS1-S1'] | – | kcat/KM (SARS-CoV-2 3CL^pro [2]): 13,696.8 M^−1·s^−1 and 13,696.8 ± 269
AAVALM↓SAHHYAYR [P1-Met] | – | ^app(kcat/KM) (SARS-CoV-2 3CL^pro [1]): 37 M⁻¹ s⁻¹; ^app(kcat/KM) (SARS-CoV-2 3CL^pro [3]): 37 M⁻¹ s⁻¹
AAVALQ↓XAHHYAYR [listing 6 of 7 here] | 45.0 ± 0.6 M⁻¹ s⁻¹ | –
AAVALQ↓XAHHYAYR [listing 7 of 7 here] | No cleavage | –
AAVALQ↓XAHHYAYR [C] | No cleavage | –
AAVALQ↓XAHHYAYR [G] | 1,079.1 ± 12.6 M^−1s^−1 | –
AAVALQ↓XAHHYAYR [D] | No cleavage | –
